Measurements published in patent US20050282781A1, “Compositions of stable bioactive metabolites of docosahexaenoic (DHA) and eicosapentaenoic (EPA) acids” (priority 2004, published 2005).
Marks after values point to notes of the source that are not given here.

Tests used:
[1] = tested on: pylorus ligated albino rats; test: Anti-ulcerogenic effect in pylorus ligated rats (ulcer index, gastric juice); assay type: in vivo
Text: Mixture of DBPs (1:1, 1 and 2, Scheme-II), on'the other hand, increased the contents of individual and the total carbohydrates and also the total carbohydrate/protein ratio in the gastric juice. The ratio of the total carbohydrate/protein was taken as the index of the mucin activity.
Another essential criterion of determining the status of mucosal resistance/barrier is the state of mucus secretion. DBPs increase not only the mucosal cellular mucus, but also secrete more dissolved mucus in the gastric juice as evidenced by their effects on gastric juice carbohydrates and on the increased carbohydrate/protein ratio.

active learning in rats = test: Active learning (learning acquisition), number of trials to reach criterion; assay type: in vivo, rat; conditions: p.o. once daily 45 min before trial for 4 days, mean ± SEM
Text: In the learning acquisition paradigm, in the control group, the number of shocked and unshocked trials required to reach the criterion of 10 correct conditional responses, were 14.33 and 43.70, respectively.

[2] = tested on: CS-induced alteration of adrenal gland ascorbic acid and corticosterone concentrations and plasma corticosterone level; test: Chronic stress induced alteration of adrenal ascorbic acid, adrenal corticosterone and plasma corticosterone; assay type: in vivo, albino rats
Experimental: The study is also relevant in view of the projected links of EPA and DHA to mental development in children which is severely retarded by chronic stress. Rats were randomly assigned to control or stress groups. Those assigned to the stress groups were subjected to 1 hour foot-shock, through a grid floor, every day for 14 days. […] Control animals received only the vehicle in either unstressed or the stressed rats for the same period in a volume of 2 ml/Kg, p.o. […] CS caused marked depletion of adrenal gland ascorbic acid and corticosterone concentrations with concomitant increase in plasma corticosterone levels. […] They had no per se effect on the indices of stress investigated (Table 3).

open-field test in rats = test: Open-field test (anxiogenic test model); assay type: in vivo, rat; parameters: Immobility: unit not given here
Experimental: This was determined according to a previously described method (Bhattacharya et al. 1998).
MDMA (5 and 10 mg/Kg, i.p.) produced a dose-related decrease in the number of squares crossed and rears, with concomitant immobility and increased defecation; these effects are qualitatively similar to those induced by yohimbine (2 mg/Kg, i.p. in 0.9% saline as the vehicle). DBPs (1 and 2, 1:1 mixture 10 mg/Kg, p.o. day-1, for 7 days) were administered prior to MDMA or yohimbine administration, on the 7th day, 1 hour after the last DBPs administration (p.o.). Similar anti-anxiogenic effects were observed on pretreatment of MDMA, followed by DBPs.

[3] = tested on: CS-induced gastric ulceration in albino rats; test: Chronic stress (foot-shock) induced gastric ulceration; assay type: in vivo
Experimental: A comparative study of DBPs (1, 2, Scheme-II; 1:1 mixture), EPA and DHA was carried out to determine their relative adaptogenic potency against chronic stress in albino rats. The study is also relevant in view of the projected links of EPA and DHA to mental development in children which is severely retarded by chronic stress.
Rats were randomly assigned to control or stress groups. Those assigned to the stress groups were subjected to 1 hour foot-shock, through a grid floor, every day for 14 days. The duration of each shock (2 mA) and the intervals between the shocks were randomly programmed between 3-5 seconds and 10-110 seconds, respectively, to make the stress unpredictable.
EPA (Aldrich), DHA (Sigma) and DBPs were separately suspended/dissolved in 0.3% carboxymethylcellulose (CMC) in distilled water and administered orally (p.o.) for 14 days, starting on day 1, 60 min. prior to electro-shock. Control animals received only the vehicle in either unstressed or the stressed rats for the same period in a volume of 2 ml/Kg, p.o. Estimations were conducted on day 14, one hour after the last stress procedure and two hours after the last test compound or vehicle was administered.
The three test compounds had, albeit in different extent, dose-related anti-ulcerogenic effect. The efficacy was in the order: DBPs>DHA>EPA (Table 2).

mice = test: Forced swimming immobility (behavioral despair), anti-stress; assay type: in vivo; conditions: in these doses (50 mg/Kg p.o. × 4 days); statistically insignificant
Experimental: Rodents when forced to swim in a restricted place, from which they cannot escape, become immobile after an initial period of vigorous activity. The observed immobility signified behavioral despair, resembling a state of mental depression. Behavioral depression is a common consequence of stress. The significant anti-stress effects of DBPs (1 and 2, Scheme-II), was assessed by the considerable reduction in the period of immobility in the test compound treated mice.

[4] = tested on: increased 5-HT release activity in MDMA-treated rats; test: MDMA-withdrawal increased 5-HT release; assay type: in vivo, rat; conditions: post-treatment in MDMA-treated rats
Text: EPA or DHA would not be truly effective for this purpose. There is evidence that presynaptic serotonergic, but not dopaminergic, mechanisms are involved in the enactogen-like discriminative stimulus properties of MDMA. MDMA increases the number of rat brain 5-hydroxytryptamine 5-HT1A receptors and induces increased release of 5-HT from presynaptic terminals. The MDMA-withdrawal syndrome includes this increased 5-HT release activity in rats.

[5] = Oral EPA or DHA to albino rats, blood levels of DBPs and benzoic acid by HPLC and GC-MS; assay type: in vivo
Experimental: Oral administration of EPA to albino rats and tracking the blood level of DBPs by HPLC were conducted. […] Cells and plasma were separated by centrifugation and extracted separately with methanol before (BH) and after acidic (HCl) hydrolysis (AH). These extracts were subjected to HPLC, when DBPs (3-hydroxy- and 3,8-dihydroxydibenzo-α-pyrones) so formed were tracked and estimated. FIGS. 2A and 2B show the turnover of EPA into 3,8-dihydroxydibenzo-α-pyrone.
Blood samples (2.5 ml) were collected from albino rats (200-220 grams, b.w.) by retro-orbital puncture, in heparinized tubes and centrifuged (3000 rpm) for 5 min. The supernatant (plasma, 0.4 ml) was collected and extracted with methanol (5 ml×3), at 60° C. by sonication for 10 min each. The combined methanolic extract was filtered and evaporated in vacuo. The residue so obtained was subjected to HPLC and GC-MS (as TMS derivatives) analyses. The presence of both 3-hydroxy-(str. 1, Scheme-II) and 3,8-dihydroxy-dibenzo-α-pyrone (str. 2, Scheme-II) was detected. Thus, the two DBPs are the normal metabolites of the albino rats. Their normal concentrations (control value) in the experimental rat blood were estimated at 0.170±0.052 μg/ml (str. 1, Scheme-II) and 0.100±0.023 μg/ml (str. 2, Scheme-II).
In the EPA treatment experiment to the above animals, EPA (25 mg, in propylene glycol, 0.5 ml) per rat was fed through the oral route. […]

[6] = L-DOPA-sparing by singlet oxygen quenching (Rose Bengal plates); assay type: biochemical; conditions: for Percent inhibition of L-DOPA oxidation (mean ± SEM): 30 min exposure to 1O2, Pi buffer pH 7.2
Text: A comparative study of the antioxidant defence provided by the three compounds, DBPs, EPA and DHA, was made. The reason for selection of this test (antioxidant-profile) is, that, agents that can regulate systemic production and interactions of reactive oxygen species, like singlet oxygen, superoxide radical and hydroxyl radical, can provide surveillance umbrella to living organisms against ‘oxidative stress’.
The singlet oxygen was generated on Rose Bengal-coated glass plates by illuminating with a 150-W spot-light at a distance of 30 cm, through water to filter infra-red light (Ghosal, S. and Bhattacharya, S. K. (1996). Antioxidant defence by shilajit, Indian J. Chem., 35B, 127-132).

[7] = 5 mg/Kg p.o. for 14 days + chronic stress
[8] = 5 mg/Kg p.o., unstressed rats (per se effect)
[9] = 10 mg/Kg p.o. for 14 days + chronic stress
[10] = 10 mg/Kg p.o., unstressed rats (per se effect)
[11] = 10 mg/Kg p.o. for 7 days, prior to MDMA or yohimbine administration

Structure (SMILES)	Number of trials to reach criterion, Shocked trials (active learning in rats; dose 2.5 mg/ml)	Number of trials to reach criterion, Unshocked trials (active learning in rats; dose 2.5 mg/ml)	Number of trials to reach criterion, Shocked trials (active learning in rats; dose 5.0 mg/ml)	Adrenal ascorbic acid [2, 7] [μg/100 mg]	Adrenal corticosterone [2, 7] [μg/100 mg]	Plasma corticosterone [2, 7]	Adrenal ascorbic acid [2, 8] [μg/100 mg]	Adrenal corticosterone [2, 8] [μg/100 mg]	Plasma corticosterone [2, 8] [µg/dL]	Adrenal ascorbic acid [2, 9]	Adrenal corticosterone [2, 9]	Plasma corticosterone [2, 9]	Adrenal ascorbic acid [2, 10] [μg/100 mg]	Adrenal corticosterone [2, 10] [μg/100 mg]	Plasma corticosterone [2, 10] [µg/dL]	Faecal pellets (open-field test in rats; [11])	Immobility (open-field test in rats; [11])	Rears (open-field test in rats; [11])	Squares crossed (open-field test in rats; [11])	No. of ulcers [3, 7]	also measured
CC(=O)Oc1ccccc1C(=O)O [ASP, aspirin]																					protein content in the gastric juice ([1]; compared to the vehicle control): significant increase; contents of DNA and protein in the gastric juice ([1]; pylorus ligated rats): appreciable increase; total carbohydrate/protein ratio in the gastric juice (index of mucin activity) ([1]; pylorus ligated rats): considerable decrease
CC/C=C\C/C=C\C/C=C\C/C=C\C/C=C\C/C=C\CCC(=O)O [DHA, docosahexaenoic acid]	12.55 ± 2.03	39.33 ± 2.04	12.78 ± 1.83	140.7 ± 20.5	2.5 ± 1.0	22.5 ± 3.5^b μg/dL	309.4 ± 30.4	4.8 ± 1.2	15.0 ± 0.9	148.0 ± 16.7^b μg/100 mg	2.8 ± 1.0^b μg/100 mg	17.9 ± 0.9^b μg/dL	308.9 ± 27.4	5.5 ± 1.0	14.7 ± 1.0	5.7 ± 4.1	59.9 ± 7.2	14.0 ± 5.5	122.1 ± 5.5	15.8 ± 4.0	Severity of ulcers [3, 7]: 28.1 ± 5.9; Ulcer incidence (%) [3, 7]: 70%; No. of ulcers [3, 9]: 14.7 ± 3.8; Severity of ulcers [3, 9]: 25.0 ± 5.2; Ulcer incidence (%) [3, 9]: 60%
CC/C=C\C/C=C\C/C=C\C/C=C\C/C=C\CCCC(=O)O [EPA, cis-5,8,11,14,17-Eicosapentaenoic acid]	13.82 ± 1.04	40.11 ± 1.88	12.11 ± 2.01	138.5 ± 18.2	3.0 ± 1.4	17.9 ± 0.9^b μg/dL	308.8 ± 28.7	5.7 ± 1.4	15.0 ± 1.6	144.2 ± 14.7^b μg/100 mg	2.9 ± 0.7^b μg/100 mg	18.3 ± 1.8^b μg/dL	310.5 ± 26.0	5.2 ± 0.8	15.5 ± 1.1	6.8 ± 3.0	70.1 ± 5.3	12.2 ± 4.8	116.5 ± 9.9	16.5 ± 3.4	anti-stress response (mice): very weak anti-stress response; Number of trials to reach criterion, Unshocked trials (active learning in rats; dose 5.0 mg/ml): 38.14 ± 1.92; reversal of the anxiety-inducing potential of MDMA (open-field test in rats; Table 5 model): only weak reversal effect; Severity of ulcers [3, 7]: 28.3 ± 7.7; Ulcer incidence (%) [3, 7]: 70%; No. of ulcers [3, 9]: 14.3 ± 4.4; Severity of ulcers [3, 9]: 26.4 ± 6.2; Ulcer incidence (%) [3, 9]: 60%; prevention of MDMA-withdrawal increased 5-HT release [4]: not; anti-ulcerogenic effect ([1]; 10 mg/ml): only weak anti-ulcerogenic effects; blood level of 3,8-(OH)2-DBP (2) versus control ([5]; after 24 h of EPA treatment): higher than that of the control; blood level of 3,8-(OH)2-DBP (2) versus control ([5]; after 72 h of EPA treatment): came down to control level; antioxidant effect (1O2 quenching) ([6]; 0.1-0.4 mM): only weak antioxidant effect; Percent inhibition of L-DOPA oxidation (mean ± SEM) ([6]; L-DOPA:test compound 1:0.1 mM): 7.7 ± 1.3%; Percent inhibition of L-DOPA oxidation (mean ± SEM) ([6]; L-DOPA:test compound 1:0.4 mM): 11.3 ± 3.2%
CNC(C)Cc1ccc2c(c1)OCO2 (stereo not drawn) [MDMA, Methylenedioxymethylamphetamine]																					Faecal pellets (open-field test in rats; 5 mg/Kg, i.p.): 6.7 ± 0.5; Immobility (open-field test in rats; 5 mg/Kg, i.p.): 69.3 ± 6.1; Rears (open-field test in rats; 5 mg/Kg, i.p.): 14.3 ± 4.2; Squares crossed (open-field test in rats; 5 mg/Kg, i.p.): 111.2 ± 8.0; Faecal pellets (open-field test in rats; 10 mg/Kg, i.p.): 8.0 ± 2.2; Immobility (open-field test in rats; 10 mg/Kg, i.p.): 80.1 ± 7.0; Rears (open-field test in rats; 10 mg/Kg, i.p.): 11.2 ± 3.9; Squares crossed (open-field test in rats; 10 mg/Kg, i.p.): 74.7 ± 5.5
COC(=O)[C@@H]1[C@H]2C[C@H]3c4[nH]c5ccccc5c4CCN3C[C@@H]2CC[C@@H]1O [Yohimbine, yohimbine]																					Faecal pellets (open-field test in rats; 2 mg/Kg, i.p. in 0.9% saline): 7.5 ± 1.2; Immobility (open-field test in rats; 2 mg/Kg, i.p. in 0.9% saline): 70.2 ± 4.9; Rears (open-field test in rats; 2 mg/Kg, i.p. in 0.9% saline): 12.8 ± 4.4; Squares crossed (open-field test in rats; 2 mg/Kg, i.p. in 0.9% saline): 90.8 ± 7.4
